Measured values taken from patent publication US20090042963A1 (priority 2005, published 2009).

System: Pyricularia oryzae
Assay type: cell-based
Settings: single active compound, Conc. 1 ppm; microtiter plate, malt-based medium, 18° C., measured at 405 nm on day 7 after inoculation

Row | Compound | Observed effect (%)
1 | CC(C)(C)C(O)(CCc1ccc(Cl)cc1)Cn1cncn1 (centres unmarked) [Tebuconazole, tebuconazole] | 2%
2 | Fc1ccc(C2(Cn3cncn3)OC2c2ccccc2Cl)cc1 (centres unmarked) [Epoxiconazole, epoxiconazole] | 0%
